The values below come from US20190029238A1, “[…]” (William Paterson University Of New Jersey, priority 2015, published 2019).

Assay [1] concerns mice subjected to chronic mild stress (CMS). The experiment in a line: Alcohol consumption in mice subjected to chronic mild stress (CMS). In kind it is in vivo, mouse. To be noted: for alcohol consumption: mice subjected to chronic mild stress (CMS); for CB2R agonist or antagonist effect on alcohol consumption: normal mice not subjected to CMS. An excerpt:
The involvement of brain neuronal CB2Rs in drug abuse and depression is studied by using the conditional ko mice of the invention. Mice preferring alcohol have reduced Cnr2 gene expression in the ventral midbrain whereas the Cnr2 gene expression is unaltered in the ventral midbrain region of mice with little or no preference for alcohol. […] This CB2R agonist or antagonist effect is absent in normal mice that were not subjected to CMS.

The target of the next assay is T1, CB2R (Mus musculus, UniProt P47936).
T1 construct: from tissue; host or cells: living mouse; brain (microglia and neurons) after stroke
T1 sequence (P47936 whole entry): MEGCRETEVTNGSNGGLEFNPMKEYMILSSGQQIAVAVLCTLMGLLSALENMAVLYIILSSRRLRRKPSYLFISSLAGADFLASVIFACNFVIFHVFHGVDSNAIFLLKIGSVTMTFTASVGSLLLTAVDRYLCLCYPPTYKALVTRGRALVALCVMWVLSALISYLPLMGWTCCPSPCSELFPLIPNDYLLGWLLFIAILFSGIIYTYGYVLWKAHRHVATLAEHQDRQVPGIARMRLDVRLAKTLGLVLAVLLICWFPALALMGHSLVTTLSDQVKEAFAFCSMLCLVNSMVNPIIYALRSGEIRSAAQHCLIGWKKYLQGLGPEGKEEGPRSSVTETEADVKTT
The experiment in a line: Early and pretreatment with CB2R agonist in stroke. In kind it is in vivo. The text has this: Optimal treatment time with CB2R agonist for anti-inflammation and neurodegeneration is studied after stroke. […] Using Cx3crl-Cnr2 and Nestin-Cnr2 pre-clinical mouse models of stroke timed experiments by administering the commercially available CB2R agonist […] at specific time points post infarct at selected doses provides data to evaluate compounds for this use. The CB2R molecular pathways and partners in stroke studied in microglia and neural progenitor cells (NPC) on different post stroke days are evaluated when various compounds are tested. Such microglia and neuron specific CB2Rs-KO stroke behavioral models allow precise mapping of CB2R selective agonist (e.g. JWH133) for potential protective roles in stroke.

The next assay deals with BTBR mice. The experiment in a line: Behavioral effects of THC in a mouse model of depression (time and number of immobility). In kind it is in vivo. To be noted: BTBR mice (autism-like phenotype) compared to control mice; FIG. 1. The text has this:
FIG. 1. Behavioral effects THC in a mouse model of depression: The time and number of immobility in the test is the index measured.

The test system of the next assay is Cnr2 gene transcripts. The experiment in a line: Expression of Cnr2 gene transcripts in rodents treated with abused substances. The note with it: treated animals in comparison to controls. In kind it is in vivo.

Consider `COc1ccc(C(=O)c2c(C)n(CCN3CCOCC3)c3cc(I)ccc23)cc1` [AM630], for which, in assay [1], the alcohol consumption result is recorded as “reduces the stress-induced increase in alcohol consumption” and the “CB2R agonist or antagonist effect on alcohol consumption” value is reported as “absent”.
On to `CCCC(C)(C)c1ccc2c(c1)OC(C)(C)[C@@H]1CC=C(C)C[C@@H]21` [JWH133], for which, at CB2R, the brain infarct volumes result is reported as “significantly reduce” and the neurological deficits entry is listed as “significantly reduce”.
As to `CN1CCCCC1Cn1cc(C(=O)c2cc([N+](=O)[O-])ccc2I)c2ccccc21` (stereo not shown) [AM1241], at CB2R, the brain infarct volumes entry was “significantly reduce” and the neurological deficits entry is recorded as “significantly reduce”.
With `CCCCCc1cc(O)c2c(c1)OC(C)(C)[C@@H]1CCC(C)=C[C@@H]21` [THC, tetrahydrocannabinol], the “Behavioral effects of THC: time and number of immobility” value in the assay with BTBR mice is reported as “BTBR mice are insensitive to the effects of THC”.
Consider `CCCn1c(C)c(C(=O)c2cccc3ccccc23)c2ccccc21` [JWH 015], for which, in assay [1], the alcohol consumption entry is given as “enhances alcohol consumption” and the “CB2R agonist or antagonist effect on alcohol consumption” value is recorded as “absent”.
As to `CC(=O)Oc1ccc2c3c1O[C@H]1[C@@H](OC(C)=O)C=C[C@H]4[C@@H](C2)N(C)CC[C@@]341` [heroin], the “Cnr2 gene transcripts in the brain” value with Cnr2 gene transcripts is on record as “increased Cnr2 gene transcripts”.
